Experimental data: patent US20190375723A1, “New Naphtho[2,3-B]Furan Derivatives” (Boston Biomedical, Inc., priority 2016, published 2019)

How the values were obtained:
HCT-116 cells [1] = experiment: Proliferation inhibition assay of cancer cells; format: cell-based; details: Homo sapiens, 96 h, adherent culture with 10% FBS, cultured for 4 days, Cell Titer-Glo, read-out: IC50 (μM) HCT (Bulk IC50 value)
Procedure: HCT-116 cells were obtained from American Type Culture Collection (ATCC). HCT-116 cells were cultured at 37° C. in the presence of 5% CO2 using McCoy's 5a medium containing 10% fetal bovine serum (FBS) and 1% penicillin/streptomycin. After cells were seeded at 300-600 cells/well onto μClear-plate black 384 well (Greiner bio-one Cat. No. 781091), a test substance was added such that the final concentration of DMSO is 0.1%, and cultured for 4 days. The number of living cells was then counted using Cell Titer-Glo (registered trademark) Luminescent Cell Viability Assay (Promega) to calculate a concentration for 50% inhibition of cell proliferation of respective test substances (Bulk IC50 value; μM).

HCT-116 cells [2] = experiment: Inhibition assay of cancer cell sphere-forming ability; format: cell-based; details: Homo sapiens, 96 h, ultra-low attachment plate, serum-free DMEM/F12 with B27, EGF, bFGF, insulin, cultured for 4 days, Cell Titer-Glo
Procedure: HCT-116 cells were obtained from American Type Culture Collection (ATCC). HCT-116 cells were cultured at 37° C. in the presence of 5% CO2 using McCoy's 5a medium containing 10% fetal bovine serum (FBS) and 1% penicillin/streptomycin. The HCT-116 cells were seeded onto 384 Well Black Clear Bottom Ultra-Low Attachment Microplate (Corning Cat. No. 3827) using DMEM/F12 medium containing 2% B27 supplement (GIBCO), 20 ng/mL epidermal growth factor (EGF) (peprotech), 10 ng/mL basic fibroblast growth factor (bFGF) (peprotech), 5 μg/mL insulin (Sigma), and 1% penicillin/streptomycin to be 350-800 cells/well. A test substance was added so that the final concentration of DMSO is 0.1%, and then cultured for 4 days. The number of living cells was then counted using Cell Titer-Glo (registered trademark) Luminescent Cell Viability Assay (Promega) to calculate the concentration for 50% inhibition of cell proliferation of respective test substances (Sphere IC50 value; μM) (this test is a method which evaluates the functions of cancer stem cells (see Non Patent Literature 4)).

Row | SMILES | IC50 (HCT-116 cells [1]) [µM] | IC50 (HCT-116 cells [2]) [µM]
1 | CC(=O)c1cc2c(o1)C(=O)c1c(Cl)ccc(O)c1C2=O [Example 1, 2-Acetyl-8-chloro-5-hydroxynaphtho[2,3-b]furan-4,9-dione] | 0.63 | 0.24
2 | CC(=O)c1cc2c(o1)C(=O)c1ccc(Br)c(O)c1C2=O [Example 2, 2-Acetyl-6-bromo-5-hydroxynaphtho[2,3-b]furan-4,9-dione] | 0.63 | 5.12
3 | CC(=O)c1cc2c(o1)C(=O)c1c(ccc(Br)c1O)C2=O [Example 3, 2-Acetyl-7-bromo-8-hydroxynaphtho[2,3-b]furan-4,9-dione] | 4.93 | 6.39
